# Experimental data reported in patent US5317095A, “Alpha-D-glycosyl kasugamycin, its preparation, and antibacterial agent containing the same” (Hayashibara Biochemical Laboratories, Inc., priority 1992, dated 1994).
# Where two headings read alike, the source gives them in different places.
# Legend:
# [1] = pH Stability test of α-D-glucosyl kasugamycin; assay type: physicochemical; settings: 120° C. for 1 hour; for remaining at 1 h: buffer, read-out: Residue (%); for remaining at 1 h / Residue (%): mean, n = 5
# Experimental: Fifty μl of 2.56 w/v % aqueous solution of α-D-glucosyl kasugamycin (purity: about 80%), which was prepared according to the method described in Example 3 was mixed with 450 μl of a buffer adjusted to pH 2.0, 4.0, 6.0, 8.0 or 10.0. The mixture was kept at 120° C. for 1 hour in a well-closed container. As the buffer was used 1M HCl- Sodium acetate buffer (pH 2.0 or pH 4.0), 1M acetic acid buffer (pH 6.0), 1M Tris-HCl buffer (pH 8.0) or 1M NH4 OH- NH4 Cl buffer (pH 10.0).
# Each of thus obtained mixtures was cooled with a running water. Then, the mixture was diluted 5 times with 0.5M Na3 PO4 -H3 PO4 (pH 6.0). Successively, the diluted mixture subjected to HPLC under the following conditions.
# As a comparison was used a sample obtained by diluting 5 times a mixture of 50 μl of 2.56 w/v % aqueous solution of α-D-glucosyl kasugamycin and 450 μl of deionized water with 0.5M Na3 PO4 -H3 PO4 (pH 6.0).
# Residue was calculated on the basis of a ratio of the peak area of α-D-glucosyl kasugamycin in each treated mixture to that in the sample as a comparison.
# Also, 1.0 w/v % aquous solution of kasugamycin purchased from Hokko Kagaku Kogyo Kabushiki Kaisha was treated in the same manner as described in the case of α-D-glucosyl kasugamycin. Residue in each pH condition was calculated.
# Column: ODS-M (commercially avairable from Shimazu Techno Research Co., Ltd.)
# Eluate: Acetonitrile/Water*=8/92 (v/v) *0.2M CH3 (CH2)5 SO3 Na (pH was not adjusted) 0.005M Na3 PO4 -H3 PO4 (pH 6.0)
# dd mice = assay: Acute toxicity; assay type: in vivo; settings: peritoneally administered; 7 week-old dd mice; highest dose 3,000 mg per kg body weight
# Source text: The α-D-glucosyl kasugamycin was peritoneally administered to 7 week-old dd mice for acute toxicity test.
# [2] = tested on: α-glucosidase derived from microorganisms of the genus Mucor; assay: Hydrolysis by α-glucosidase derived from microorganisms of the genus Mucor; assay type: in vitro ADME; settings: enzyme from genus Mucor; forms 1 mole of D-glucose per 1 mole of kasugamycin
# [3] = Stability in aqueous solution; assay type: physicochemical; settings: pH in the range from 3.0 to 7.0
# [4] = tested on: α-glucosidase derived from pig liver; assay: Hydrolysis by α-glucosidase derived from pig liver; assay type: in vitro ADME; settings: pig liver enzyme; forms 1 mole of D-glucose per 1 mole of kasugamycin
# Solubility in solvents = assay type: physicochemical
# [5] = tested on: α-glucosidase derived from seeds of rice plant; assay: Hydrolysis by α-glucosidase derived from seeds of rice plant; assay type: in vitro ADME; settings: enzyme from seeds of rice plant; forms 1 mole of D-glucose per 1 mole of kasugamycin
compound,measurement,setting,value
"C[C@H]1O[C@H](O[C@H]2[C@H](O)[C@@H](O)[C@@H](O)[C@H](O)[C@@H]2O)[C@@H](N)C[C@@H]1NC(=N)C(=O)O [Kasugamycin, kasugamycin]",remaining at 1 h,[1]; pH 2.0,76%
same,remaining at 1 h,[1]; pH 4.0,72.1%
same,remaining at 1 h,[1]; pH 6.0,26.8%
same,remaining at 1 h,[1]; pH 8.0,9.5%
same,Residue (%),[1]; pH 10.0,trace
α-D-glucosyl kasugamycin,Residue (%),[1]; pH 2.0,76.2%
same,Residue (%),[1]; pH 4.0,75.2%
same,Residue (%),[1]; pH 6.0,26.9%
same,times stabler than kasugamycin,"[1]; pH 8.0, 17.6/9.5",approximately 1.85 times
same,Residue (%),[1]; pH 8.0,17.6%
same,Residue (%),[1]; pH 10.0,trace
same,deaths (acute toxicity),dd mice,not observed any deaths
same,Hydrolysis by α-glucosidase,[2],readily hydrolyed
same,Stability in an aqueous solution,[3],excellently stable
same,Hydrolysis by α-glucosidase,[4],readily hydrolyed
same,Solubility in 0.1N hydrochloric acid,Solubility in solvents; 0.1N hydrochloric acid,readily soluble
same,Solubility in 0.1N sodium hydroxide,Solubility in solvents; 0.1N sodium hydroxide,readily soluble
same,Solubility in acetic acid,Solubility in solvents; acetic acid,readily soluble
same,Solubility in chloroform,Solubility in solvents; chloroform,insoluble
same,Solubility in ethanol,Solubility in solvents; ethanol,substantially insoluble
same,Solubility in ethyl acetate,Solubility in solvents; ethyl acetate,insoluble
same,Solubility in methanol,Solubility in solvents; methanol,substantially insoluble
same,Solubility in water,Solubility in solvents; water,readily soluble
same,solubility in water relative to that of kasugamycin,"Solubility in solvents; water, room temperature, vs kasugamycin",not less than fivefold
same,Hydrolysis by α-glucosidase,[5],readily hydrolyed
